The record followed here is patent US8916599B2, “1H-benz imidazole-5-carboxamides as anti-inflammatory agents” (Orexo AB, priority 2008, dated 2014).

One experiment has as its target T1, recombinant human mPGES-1 (Homo sapiens, UniProt O14684).
T1 construct: made in house; host or cells: Rosetta E. coli (microsomal/membrane fraction)
T1 sequence (O14684 1-152): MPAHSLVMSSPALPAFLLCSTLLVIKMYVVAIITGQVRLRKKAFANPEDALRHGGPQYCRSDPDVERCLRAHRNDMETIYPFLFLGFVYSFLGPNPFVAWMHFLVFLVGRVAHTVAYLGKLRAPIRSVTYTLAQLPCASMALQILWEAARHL
In words: mPGES-1 inhibition test (microsomes, PGH2 substrate, HTRF detection of PGE2). The experiment is classed as biochemical. The settings on record: inhibition of mPGES-1 at 1 μM (marked in cell). The procedure, abridged: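 Microsomes from E. coli expressing recombinant human mPGES-1 in 0.1 M KPi pH 7.4 with 2.5 mM GSH were preincubated with inhibitor 25 min at room temperature. PGH2 was then added, and the reaction was stopped after 1 min with acidified FeCl2. PGE2 was quantified by HTRF (665/620 nm ratio) against a synthetic PGE2 standard curve.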
In general terms: Time-resolved FRET reads energy transfer from a long-lived donor to a nearby acceptor.
One may read the inhibition as the drop in the measured response relative to a control, in per cent. With `O=C(Nc1ccc(Cl)c(F)c1)c1ccc2[nH]c(Nc3c(Cl)cccc3Cl)nc2c1` [Example 67, 2-(2,6-Dichloro-phenylamino)-1H-benzimidazole-5-carboxylic acid (4-chloro-3-fluoro-phenyl)-amide], the inhibition at 1 µM was 100%.

The experiment is the same for the next values; noted with them: inhibition of mPGES-1 at 10 μM.
Consider `CCCCOc1cccc(NC(=O)c2ccc3c(c2)nc(Nc2c(Cl)cccc2Cl)n3C)n1` [Example 349, 2-(2,6-Dichloro-phenylamino)-1-methyl-1-H-benzimidazole-5-carboxylic acid (6-butoxy-pyridin-2-yl)-amide], for which the inhibition at 10 µM worked out at 100%.

As for `COc1cc2[nH]c(Nc3c(Cl)cccc3Cl)nc2cc1C(=O)NCc1ncccc1C1CC1` [Example 407, N-((3-Cyclopropylpyridin-2-yl)-methyl)-2-(2,6-dichlorophenylamino)-6-methoxy-1H-benzimidazole-5-carboxamide], the inhibition at 10 µM was 100%.

Consider `O=C(NCC1CCCO1)c1ccc2[nH]c(Nc3c(Cl)cccc3Cl)nc2c1` (centres unmarked) [Example 234, 2-(2,6-Dichloro-phenylamino)-1H-benzimidazole-5-carboxylic acid (tetrahydro-furan-2-ylmethyl)-amide], for which the inhibition at 10 µM was determined as 77%.

As for `O=C(NC1CCC(F)(F)CC1)c1ccc2nc(Nc3c(Cl)cccc3Cl)[nH]c2c1` [Example 147, 2-(2,6-Dichloro-phenylamino)-3H-benzimidazole-5-carboxylic acid (4,4-difluoro-cyclohexyl)-amide], the inhibition at 10 µM is 94%.

`CC1CCC(NC(=O)c2ccc3c(c2)nc(Nc2c(Cl)cccc2Cl)n3C)CC1` (centres unmarked) [Example 239, 2-(2,6-Dichloro-phenylamino)-1-methyl-1H-benzimidazole-5-carboxylic acid (4-methyl-cyclohexyl)-amide]: the inhibition at 10 µM came out at 96%.

For `O=C(N[C@H]1CC[C@@H](C(F)(F)F)CC1)c1cc2nc(Nc3c(Cl)cccc3Cl)[nH]c2cc1F` [Example 169, 2-(2,6-Dichloro-phenylamino)-6-fluoro-1H-benzimidazole-5-carboxylic acid (cis-4-trifluoromethyl-cyclohexyl)-amide], the inhibition at 10 µM was determined as 94%.

Regarding `Cn1c(Nc2c(Cl)cccc2Cl)nc2cc(C(=O)NCCCC3CC3)c(F)cc21` [Example 398, N-(3-Cyclopropylpropyl)-2-(2,6-dichlorophenylamino)-6-fluoro-1-methyl-1H-benzimidazole-5-carboxamide], the inhibition at 10 µM is 96%.

As for `CC(C)[C@H]1CC[C@H](NC(=O)c2cc3nc(Nc4c(F)cccc4Cl)n(C)c3cc2F)CC1` [Example 368], the inhibition at 10 µM was 100%.

`CS(=O)(=O)NCCCn1c(Nc2c(Cl)cccc2Cl)nc2cc(C(=O)Nc3cc(Cl)ccn3)ccc21` [Example 206, 2-(2,6-Dichloro-phenylamino)-1-(3-methanesulfonylamino-propyl)-1H-benzimidazole-5-carboxylic acid (4-chloro-pyridin-2-yl)-amide]: the inhibition at 10 µM worked out at 100%.

As to `O=C(Nc1ccc(Br)cc1)c1cc2nc(Nc3c(Cl)cc(F)cc3Cl)[nH]c2cc1OCCF` [Example 585, 2-(2,6-Dichloro-4-fluoro-phenylamino)-N-(4-bromo-phenyl)-6-(2-fluoroethoxy)-1H-benzimidazole-5-carboxamide], the inhibition at 10 µM was 100%.

As to `CC(C)(C)[C@H]1CC[C@H](NC(=O)c2cc3nc(Nc4c(F)cccc4Cl)[nH]c3cc2F)CC1` [Example 357, N-((1r,4r)-4-tert.-Butylcyclohexyl)-2-(2-chloro-6-fluorophenylamino)-6-fluoro-1H-benzimidazole-5-carboxamide], the inhibition at 10 µM was found to be 100%.

On to `Cc1cc(NC(=O)c2ccc3[nH]c(Nc4c(Cl)cccc4Cl)nc3c2)ncc1Br` [Example 182, 2-(2,6-Dichloro-phenylamino)-1H-benzimidazole-5-carboxylic acid (5-bromo-4-methyl-pyridin-2-yl)-amide], for which the inhibition at 10 µM turned out to be 99%.

For the molecule `Cn1c(Nc2c(F)cccc2Cl)nc2cc(C(=O)N[C@H]3CC[C@H](C(F)F)CC3)c(F)cc21` [Example 476, 2-(2-Chloro-6-fluorophenylamino)-N-((1r,4r)-4-(difluoromethyl)cyclohexyl)-6-fluoro-1-methyl-1H-benzimidazole-5-carboxamide], the inhibition at 10 µM came out at 100%.

As for `O=C(Nc1cccc(Cl)c1)c1cc2[nH]c(Nc3c(Cl)cccc3Cl)nc2cc1F` [Example 143, 2-(2,6-Dichloro-phenylamino)-6-fluoro-3H-benzimidazole-5-carboxylic acid (3-chloro-phenyl)-amide], the inhibition at 10 µM was 100%.

Regarding `Cn1c(Nc2c(Cl)cccc2Cl)nc2cc(C(=O)NCCc3ccncc3)ccc21` [Example 260, 2-(2,6-Dichloro-phenylamino)-1-methyl-1H-benzimidazole-5-carboxylic acid (2-pyridin-4-yl-ethyl)-amide], the inhibition at 10 µM was 84%.

Regarding `O=C(Nc1ccc(Cl)c(F)c1)c1cc2nc(Nc3c(Cl)cccc3Cl)[nH]c2cc1Cl` [Example 55, 2-(2,6-Dichloro-phenylamino)-6-chloro-1H-benzimidazol-5-carboxylic acid (4-chloro-3-fluoro-phenyl)-amide], the inhibition at 10 µM was 93%.

Consider `O=C(Nc1ccc(Cl)cn1)c1ccc2[nH]c(Nc3c(Cl)cccc3Cl)nc2c1` [Example 74, 2-(2,6-Dichloro-phenylamino)-1H-benzimidazole-5-carboxylic acid (5-chloro-pyridin-2-yl)-amide], for which the inhibition at 10 µM amounted to 97%.

In the case of `Cn1c(Nc2c(Cl)cccc2Cl)nc2cc(C(=O)N[C@H]3CC[C@@H](C(F)(F)F)CC3)c(F)cc21` [Example 170, 2-(2,6-Dichloro-phenylamino)-6-fluoro-1-methyl-1H-benzimidazole-5-carboxylic acid (cis-4-trifluoromethyl-cyclohexyl)-amide], the inhibition at 10 µM was found to be 100%.

As to `COc1cc2[nH]c(Nc3c(Cl)ccc(Cl)c3F)nc2cc1C(=O)N[C@H]1CC[C@H](C(F)(F)F)CC1` [Example 617, 2-(3,6-Dichloro-2-fluoro-phenylamino)-6-methoxy-N-(4-trans-trifluoromethyl-cyclohex-1-yl)-1H-benzimidazole-5-carboxamide], the inhibition at 10 µM is 100%.

Take `COc1cc2c(cc1C(=O)NC1CCCCC1)nc(Nc1c(Cl)cccc1Cl)n2C` [Example 135, 2-(2,6-Dichloro-phenylamino)-6-methoxy-1-methyl-1H-benzimidazole-5-carboxylic acid cyclohexylamide]: the inhibition at 10 µM turned out to be 100%.

On to `O=C(Nc1ccc(Br)cc1)c1ccc2[nH]c(Nc3c(Cl)cc(Cl)cc3Cl)nc2c1` [Example 107, 2-(2,4,6-Trichloro-phenylamino)-1H-benzimidazole-5-carboxylic acid (4-bromo-phenyl)-amide], for which the inhibition at 10 µM was 99%.

For the molecule `O=C(NC1CCc2ccccc2C1)c1ccc2nc(Nc3c(Cl)cccc3Cl)[nH]c2c1` (centres unmarked) [Example 146, 2-(2,6-Dichloro-phenylamino)-3H-benzimidazole-5-carboxylic acid (1,2,3,4-tetrahydro-naphthalen-2-yl)-amide], the inhibition at 10 µM was determined as 97%.

On to `CC1CC(NC(=O)c2ccc3c(c2)nc(Nc2c(Cl)cccc2Cl)n3C)CC(C)(C)C1` (centres unmarked) [Example 241, 2-(2,6-Dichloro-phenylamino)-1-methyl-1H-benzimidazole-5-carboxylic acid (3,3,5-trimethyl-cyclohexyl)-amide], for which the inhibition at 10 µM was determined as 100%.

Take `CCc1ccc(C)nc1NC(=O)c1ccc2c(c1)nc(Nc1c(Cl)cccc1Cl)n2C` [Example 545, 2-(2,6-Dichlorophenylamino)-N-(3-ethyl-6-methylpyridin-2-yl)-1-methyl-1H-benzimidazole-5-carboxamide]: the inhibition at 10 µM turned out to be 89%.

As for `CC(C)Oc1cc2[nH]c(Nc3c(Cl)ccc(Cl)c3F)nc2cc1C(=O)NC1CCCCC1` [Example 611, 2-(3,6-Dichloro-2-fluoro-phenylamino)-6-isopropoxy-N-cyclohexyl-1H-benzimidazole-5-carboxamide], the inhibition at 10 µM is 90%.

For `Cn1c(Nc2c(Cl)cccc2Cl)nc2cc(C(=O)NC3CCC4(CC4)C3)c(F)cc21` (centres unmarked) [Example 415, 2-(2,6-Dichlorophenylamino)-6-fluoro-1-methyl-N-(spiro[2.4]heptan-5-yl)-1H-benzimidazole-5-carboxamide], the inhibition at 10 µM is 100%.

Take `O=C(Nc1ccc(Br)cc1)c1cc2nc(Nc3c(Cl)cc(F)cc3Cl)[nH]c2cc1OCC(F)(F)F` [Example 582, 2-(2,6-Dichloro-4-fluoro-phenylamino)-N-(4-bromo-phenyl)-6-(2,2,2-trifluorethoxy)-1H-benzimidazole-5-carboxamide]: the inhibition at 10 µM amounted to 100%.

On to `O=C(Nc1ncccc1C(F)(F)F)c1ccc2[nH]c(Nc3c(Cl)cccc3Cl)nc2c1` [Example 190, 2-(2,6-Dichloro-phenylamino)-1H-benzimidazole-5-carboxylic acid (3-trifluoromethyl-pyridin-2-yl)-amide], for which the inhibition at 10 µM came out at 75%.

As for `O=C(Nc1cccc(Cl)c1)c1cc(Br)c2[nH]c(Nc3c(Cl)cccc3Cl)nc2c1` [compound 351], the inhibition at 10 µM was determined as 100%.

For `CCOc1cc2c(cc1C(=O)NC1CCC(C(F)(F)F)CC1)nc(Nc1c(Cl)ccc(Cl)c1F)n2C` (stereo not drawn) [Example 605, 2-(3,6-Dichloro-2-fluoro-phenylamino)-6-ethoxy-N-(4-trans-trifluoromethyl-cyclohex-1-yl)-1-methyl-1H-benzimidazole-5-carboxamide], the inhibition at 10 µM was 93%.

Turning to `CN(C)c1cccc(Cl)c1Nc1nc2cc(C(=O)Nc3ccc(Br)cc3)ccc2n1C` [Example 499, N-(4-Bromophenyl)-2-(2-chloro-6-(dimethylamino)phenylamino)-1-methyl-1H-benzimidazole-5-carboxamide], the inhibition at 10 µM came to 100%.
